In patent publication US20250304537A1 (Repare Therapeutics Inc., priority 2022, published 2025):
Like-named read-outs stand apart in the source and are kept apart here.

How the values were obtained:
[1] = biological target: recombinant human Myt1 (full length PKMYT1) (Homo sapiens (Human), UniProt Q99640); assay: Recombinant human Myt1 kinase assay (ADP-Glo); type: biochemical; settings: 10 μM ATP
How it was run: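 ADP-Glo luminescence measured ATP hydrolysis by recombinant full-length PKMYT1 (18 nM) after 60 min at 30 °C with 10 μM ATP. Compounds in 0.5% DMSO were added to the enzyme 15 min before ATP, at 22 °C, in HEPES/MgCl2/MnCl2 buffer. IC50 and percent maximal inhibition were derived.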

[2] = test system: PKMYT1 (CDK1 pThr14) in FUOV1 cells; assay: PKMYT1 cell-based activity assay, CDK1 pThr14 AlphaLISA in FUOV1 cells; settings: 2 h, read-out: FUOV-1 CDK1 pThr14 IC50
How it was run: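 IC50 was derived from AlphaLISA signal (excitation 680 nm, emission 615 nm) for phospho-Thr14 CDK1 in lysates. The detection antibodies were rabbit anti-pThr14 and mouse anti-total CDK1, each at 5 nM. FUOV1 ovarian cells were exposed to compound for 2 hours before lysis.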

Sequence of recombinant human Myt1 (full length PKMYT1) (Q99640 whole entry): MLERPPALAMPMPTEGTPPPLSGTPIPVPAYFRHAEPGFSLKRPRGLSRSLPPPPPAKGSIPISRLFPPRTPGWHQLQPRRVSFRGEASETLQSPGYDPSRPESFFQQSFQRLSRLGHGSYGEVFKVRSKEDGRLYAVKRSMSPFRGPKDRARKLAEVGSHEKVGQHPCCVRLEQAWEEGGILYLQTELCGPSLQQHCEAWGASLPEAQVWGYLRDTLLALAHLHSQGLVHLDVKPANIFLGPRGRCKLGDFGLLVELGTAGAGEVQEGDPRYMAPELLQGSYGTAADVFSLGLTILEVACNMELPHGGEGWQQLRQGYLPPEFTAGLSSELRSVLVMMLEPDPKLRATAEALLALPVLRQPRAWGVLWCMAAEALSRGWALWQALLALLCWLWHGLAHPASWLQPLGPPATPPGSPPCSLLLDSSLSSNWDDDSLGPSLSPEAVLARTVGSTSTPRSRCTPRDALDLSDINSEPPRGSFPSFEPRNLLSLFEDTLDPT

Compound | IC50 [1] [nM] | IC50 ([2]; 2 h incubation) [nM] | IC50 ([2]; 2 h compound incubation) [nM] | IC50 ([2]; 2 hours with compound) [nM]
Cc1ccc2[nH]ncc2c1-c1cc(-c2ccnc(Nc3ccncc3)n2)nc(C(N)=O)c1N [Compound 200] | 11 | 154 | – | –
Cc1cc(Nc2cc(F)ccc2-c2nc(C(N)=O)c(N)c(-c3c(C)ccc4[nH]ncc34)n2)cc(C)n1 [Compound 624] | 8 | – | 489 | –
NC(=O)c1nc(-c2ccccc2)nc(-c2cccc3[nH]nc(F)c23)c1N [Compound 123] | 99 | > 10000 | – | –
Cc1ccc2[nH]ncc2c1-c1cc(-c2ccnc(S(C)(=O)=O)n2)nc(C(N)=O)c1N [Compound 168] | 29 | 7590 | – | –
NC(=O)c1nc(-c2ccccc2)nc(-c2cccc3[nH]ncc23)c1N [Compound 68] | 50 | > 10000 | – | –
Cc1cccc(-c2nc(C(N)=O)c(N)c(-c3c(C)ccc4[nH]ncc34)n2)c1NC(=O)C1(C)CC1 [Compound 440] | 13 | – | 523 | –
CCOC(=O)Nc1ccccc1-c1nc(C(N)=O)c(N)c(-c2c(C)ccc3[nH]ncc23)n1 [Compound 473] | 8 | – | 48 | –
Cc1ccc2[nH]ncc2c1-c1cc(-c2cccc(OCc3cccnc3)n2)nc(C(N)=O)c1N [Compound 179] | 7 | 423 | – | –
Cc1ccc2[nH]ncc2c1-c1nc(-c2ccccc2NC(=O)[C@]2(C)CCCN2)nc(C(N)=O)c1N [Compound 422] | 19 | – | 373 | –
Cc1ccnc(Nc2cc(F)ccc2-c2nc(C(N)=O)c(N)c(-c3c(C)ccc4[nH]ncc34)n2)c1 [Compound 616] | 11 | – | 192 | –
Cc1ccc2[nH]ncc2c1-c1nc(-c2ccccc2NC(=O)[C@@]2(C)CCCN2)nc(C(N)=O)c1N [Compound 431] | 8 | – | 5 | –
Cc1ccc2[nH]ncc2c1-c1nc(-c2ccns2)nc(C(N)=O)c1N [Compound 109] | 23 | 717 | – | –
Cc1ccc2[nH]ncc2c1-c1nc(-c2cccc3c2NC(=O)C32CC2)nc(C(N)=O)c1N [Compound 399] | 17 | – | 143 | –
Cc1ccc(O)cc1-c1nc(-c2nccs2)nc(C(N)=O)c1N [Compound 3, 5-amino-6-(5-hydroxy-2-methylphenyl)-2-(thiazol-2-yl)pyrimidine-4-carboxamide] | 21 | 560 | – | –
Cc1ccc2[nH]ncc2c1-c1nc(-c2ccc3c(c2)OCO3)nc(C(N)=O)c1N [Compound 297] | 9 | 422 | – | –

More lines, now with the values ahead:

IC50 [1] [nM] | IC50 ([2]; 2 h incubation) [nM] | IC50 ([2]; 2 h compound incubation) [nM] | IC50 ([2]; 2 hours with compound) [nM] | Compound
4 | 23 | – | – | CCC(COc1nccc(-c2cc(-c3c(C)ccc4[nH]ncc34)c(N)c(C(N)=O)n2)n1)OC (centres unmarked) [Compound 302]
3 | – | 26 | – | Cc1ccc(O)c(C)c1-c1nc(-c2ccccc2NC(=O)C2(C)CC2)cc(C(N)=O)c1N [Compound 428]
6 | – | 42 | – | Cc1ccc2[nH]ncc2c1-c1nc(-c2cc(Cl)ccc2NC(=O)C2(C)CC2)nc(C(N)=O)c1N [Compound 439]
5 | – | 28 | – | Cc1ccc2[nH]ncc2c1-c1nc(-c2ccccc2NCC(F)(F)F)nc(C(N)=O)c1N [Compound 409]
< 3 | – | – | 789 | Cc1ccc2[nH]ncc2c1-c1nc(-c2cccnc2NC(C)(C)C2CCCO2)nc(C(N)=O)c1N (centres unmarked) [Compound 881]
6 | 260 | – | – | Cc1ccc(O)c(C)c1-c1cc(-c2ccnc(N)c2)cc(C(N)=O)c1N [Compound 64]
4 | – | 278 | – | Cc1ccc2[nH]ncc2c1-c1nc(-c2ccccc2C(C)O)nc(C(N)=O)c1N (centres unmarked) [Compound 787]
7 | 46 | – | – | Cc1ccc(O)c(C)c1-c1cc(-c2cccc(OC3CCOCC3)n2)nc(C(N)=O)c1N [Compound 57]
5 | 575 | – | – | Cc1ccc(O)c(C)c1-c1cc(-c2cc(F)cc(F)c2)nc(C(N)=O)c1N [Compound 16, 3-amino-6-(3,5-difluorophenyl)-4-(3-hydroxy-2,6-dimethylphenyl)picolinamide]
7 | 983 | – | – | COC(COc1cccc(-c2cc(-c3c(C)ccc4[nH]ncc34)c(N)c(C(N)=O)n2)n1)C1CC1 (centres unmarked) [Compound 344]
4 | – | 9 | – | CC1(C(=O)Nc2ccccc2-c2nc(C(N)=O)c(N)c(-c3c(Cl)ccc4[nH]ncc34)n2)CC1 [Compound 410]
< 3 | – | – | 118 | Cc1ccc2[nH]ncc2c1-c1nc(-c2ccc(S(C)(=O)=O)cc2NC2CCOCC2)nc(C(N)=O)c1N [Compound 831]
7 | 122 | – | – | Cc1ccc2[nH]ncc2c1-c1cc(-c2ccnc(OC3COC3)n2)nc(C(N)=O)c1N [Compound 161]
3 | – | – | 71 | Cc1ccc2[nH]ncc2c1-c1nc(-c2cccnc2NC(=O)C(C)(C)C)nc(C(N)=O)c1N [Compound 805, 5-amino-6-(5-methyl-1H-indazol-4-yl)-2-(2-pivalamidopyridin-3-yl)pyrimidine-4-carboxamide]
2 | – | 83 | – | Cc1ccc2[nH]ncc2c1-c1nc(-c2cc(F)ccc2NS(=O)(=O)C2CC2)nc(C(N)=O)c1N [Compound 481]
5 | 289 | – | – | Cc1ccc2[nH]ncc2c1-c1nc(-c2cccc3c2NC(=O)C3)nc(C(N)=O)c1N [Compound 385]
4 | 14 | – | – | Cc1ccc(O)c(C)c1-c1cc(-c2ccccn2)nc(C(N)=O)c1N [Compound 19]
4 | 208 | – | – | Cc1ccc2[nH]ncc2c1-c1cc(-c2ccnc(OCc3ccncc3)n2)nc(C(N)=O)c1N [Compound 230]
4 | – | – | 58 | Cc1ccc2[nH]ncc2c1-c1nc(-c2cn(C)nc2NC2CCOCC2)nc(C(N)=O)c1N [Compound 845]
